Test results from ChEMBL document CHEMBL1158905, “Two New Bioactive Cyclic Peroxides from the Marine Sponge Plakortis angulospiculatus” (J Nat Prod, 1990).
Converted amounts (≈) assume the structure as drawn. The source made the active and inactive calls. No cut-off for these calls is given here.

Key:
Candida albicans = test: Antimicrobial activity against Candida albicans ATCC 44506 by broth microdilution method; assay type: functional
Aspergillus nidulans = test: Antimicrobial activity against Aspergillus nidulans by at 20 ug/disk by disk diffusion method; assay type: functional, organism-based
Bacillus subtilis = test: Antimicrobial activity against Bacillus subtilis by at 20 ug/disk by disk diffusion method; assay type: functional, organism-based
Escherichia coli = test: Antimicrobial activity against Escherichia coli by at 20 ug/disk by disk diffusion method; assay type: functional, organism-based
P388 = test: Cytotoxicity against mouse P388 cells; assay type: functional, cell-based

CC/C=C/C(CC)CC(C)CC1(CC)C=C(CC)C(CC(=O)OC)OO1 (stereo not given)
MIC (Candida albicans): > 50 µg/mL | Activity (Aspergillus nidulans): inactive | Activity (Bacillus subtilis): inactive | Activity (Escherichia coli): inactive | IC50 (P388): 0.9 µg/mL (≈ 2.46 µM)

CC/C=C/C(CC)CC(C)CC1(CC)C=C(CC)C(CC(=O)O)OO1 (stereo not given)
MIC (Candida albicans): 1.6 µg/mL (≈ 4.54 µM) | Activity (Aspergillus nidulans): Active | Activity (Bacillus subtilis): Active | Activity (Escherichia coli): inactive | IC50 (P388): 0.3 µg/mL (≈ 0.851 µM)

CCCCC(CC)CC(C)CC1(CC)C=C(CC)C(CC(=O)OC)OO1 (stereo not given)
MIC (Candida albicans): > 50 µg/mL | Activity (Aspergillus nidulans): inactive | Activity (Bacillus subtilis): inactive | Activity (Escherichia coli): inactive | IC50 (P388): 0.2 µg/mL (≈ 0.543 µM)

CCCCC(CC)CC(C)CC1(CC)C=C(CC)C(CC(=O)O)OO1 (stereo not given)
MIC (Candida albicans): 1.6 µg/mL (≈ 4.51 µM) | Activity (Aspergillus nidulans): Active | Activity (Bacillus subtilis): Active | Activity (Escherichia coli): inactive | IC50 (P388): 0.2 µg/mL (≈ 0.564 µM)
